Assay results published in patent US12371454B2, “Cyclic peptide compound having Kras inhibitory action” (priority 2019, dated 2025).
Positions of bridges follow the written chain, without caps; N, C: chain ends. Non-standard residues stand in square brackets, D forms with d. Residues, ends and D or L forms follow the SMILES beside them. *: point of attachment. hPhe(3-Cl-4-CF3) = N[C@@H](CCc1ccc(C(F)(F)F)c(Cl)c1)C(=O)O; hPhe(3-F,4-CF3) = N[C@@H](CCc1ccc(C(F)(F)F)c(F)c1)C(=O)O; NMePhe(4-CF3) = CN[C@@H](Cc1ccc(C(F)(F)F)cc1)C(=O)O; 3Oxa8azabicyclo(3.2.1)octane = C1CC2COCC1N2*; NMePhe(4-Me) = CN[C@@H](Cc1ccc(C)cc1)C(=O)O; hPhe(4-Cl) = N[C@@H](CCc1ccc(Cl)cc1)C(=O)O; NMeAla(cPent) = CN[C@@H](CC1CCCC1)C(=O)O; NMeCha = CN[C@@H](CC1CCCCC1)C(=O)O; NMeChg = CN[C@H](C(=O)O)C1CCCCC1; NMeD = CN[C@@H](CC(=O)O)C(=O)O; NMeL = CN[C@@H](CC(C)C)C(=O)O; NMeNva = CCC[C@H](NC)C(=O)O; NMeAbu = CC[C@H](NC)C(=O)O; NMeS = CN[C@@H](CO)C(=O)O; Morpholide = C1CN(*)CCO1; Pyrrolidide = C1CCN(*)C1; Ac5c = NC1(C(=O)O)CCCC1; Sar = CNCC(=O)O; Propyl = CCC*

Experiments:
[1] = system: Human pancreatic cancer cell line AsPC-1; test: Measurement of AsPC-1 cell growth inhibition (AsPC-1 CGI); format: cell-based; settings: 96 h
How it was run: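 AsPC-1 cells in 15% FBS RPMI-1640 were exposed to test compound for 96 hours at 37° C, with CellTiter-Glo as endpoint.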

[2] = molecular target: T1, Kras and SOS1 (biotin-tagged human Kras loaded with GDP, His-tagged human SOS1) (Homo sapiens, UniProt P01116, G12D); test: Protein-protein interaction inhibition between Kras and SOS1 (KrasGl2D-SOS PPI) using AlphaScreen; format: binding; settings: AlphaScreen; biotin-tagged human Kras loaded with GDP, His-tagged human SOS1; read-out: KRAS G12D-SOS PPI IC50
T1 construct: made in house; host or cells: E. coli (stated for Kras only)
T1 sequence (P01116 1-188 isoform P01116-2 G12D): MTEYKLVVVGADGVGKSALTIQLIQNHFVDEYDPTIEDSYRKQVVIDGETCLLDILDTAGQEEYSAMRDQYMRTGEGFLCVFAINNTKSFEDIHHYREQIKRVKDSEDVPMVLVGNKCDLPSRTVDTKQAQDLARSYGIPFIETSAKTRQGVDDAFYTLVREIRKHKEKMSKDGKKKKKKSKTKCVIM
How it was run: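 Read-out is acceptor-bead light at 520-620 nm, arising when 680 nm-irradiated nickel donor beads pass singlet oxygen to streptavidin acceptors. The bead pair links His-tagged SOS1 with biotin-tagged, GDP-bound Kras from E. coli.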

| Structure (SMILES) | IC50 [1] | IC50 [2] |
| --- | --- | --- |
| CCCOC[C@H]1C(=O)N(C)CC(=O)N[C@@H](CCc2ccc(C(F)(F)F)c(Cl)c2)C(=O)N2CCC[C@H]2C(=O)NC2(CCCC2)C(=O)N(C)[C@@H](C2CCCCC2)C(=O)N(C)[C@H](C(=O)N2C3CCC2COC3)CC(=O)N(C)[C@@H](CC)C(=O)N[C@@H]([C@@H](C)CC)C(=O)N(C)CC(=O)N(C)CC(=O)N1C [Compound 1956] ([NMeAbu]I[Sar][Sar][NMeS](Propyl)[Sar][hPhe(3-Cl-4-CF3)]P[Ac5c][NMeChg][NMeD]-{3Oxa8azabicyclo(3.2.1)octane}; lactam N-11) | 100 to 500 nM | 0.76 nM |
| CC[C@H](C)[C@@H]1NC(=O)[C@H](CC(C)C)N(C)C(=O)C[C@@H](C(=O)N2C3CCC2COC3)N(C)C(=O)[C@H](C2CCCCC2)N(C)C(=O)C2(CCCC2)NC(=O)[C@@H]2CCCN2C(=O)[C@H](CCc2ccc(C(F)(F)F)c(F)c2)NC(=O)CN(C)C(=O)[C@H](CC2CCCCC2)N(C)C(=O)CN(C)C(=O)CN(C)C1=O [Compound 1957] ([NMeL]I[Sar][Sar][NMeCha][Sar][hPhe(3-F,4-CF3)]P[Ac5c][NMeChg][NMeD]-{3Oxa8azabicyclo(3.2.1)octane}; lactam N-11) | 100 to 500 nM | 1.2 nM |
| CC[C@H](C)[C@@H]1NC(=O)[C@H](CC)N(C)C(=O)C[C@@H](C(=O)N2CCCC2)N(C)C(=O)[C@H](C2CCCCC2)N(C)C(=O)C2(CCCC2)NC(=O)[C@@H]2CCCN2C(=O)[C@H](CCc2ccc(C(F)(F)F)c(Cl)c2)NC(=O)CN(C)C(=O)[C@H](CC2CCCCC2)N(C)C(=O)CN(C)C(=O)CN(C)C1=O [Compound 1958] ([NMeAbu]I[Sar][Sar][NMeCha][Sar][hPhe(3-Cl-4-CF3)]P[Ac5c][NMeChg][NMeD]-Pyrrolidide; lactam N-11) | 20 to 50 nM | 0.45 nM |
| CC[C@H](C)[C@@H]1NC(=O)[C@H](CC)N(C)C(=O)C[C@@H](C(=O)N2C3CCC2COC3)N(C)C(=O)[C@H](C2CCCCC2)N(C)C(=O)C2(CCCC2)NC(=O)[C@@H]2CCCN2C(=O)[C@H](CCc2ccc(C(F)(F)F)c(Cl)c2)NC(=O)CN(C)C(=O)[C@H](Cc2ccc(C)cc2)N(C)C(=O)CN(C)C(=O)CN(C)C1=O [Compound 1963] ([NMeAbu]I[Sar][Sar][NMePhe(4-Me)][Sar][hPhe(3-Cl-4-CF3)]P[Ac5c][NMeChg][NMeD]-{3Oxa8azabicyclo(3.2.1)octane}; lactam N-11) | 50 to 100 nM | 0.63 nM |
| CC[C@H](C)[C@@H]1NC(=O)[C@H](CC(C)C)N(C)C(=O)C[C@@H](C(=O)N2CCOCC2)N(C)C(=O)[C@H](C2CCCCC2)N(C)C(=O)C2(CCCC2)NC(=O)[C@@H]2CCCN2C(=O)[C@H](CCc2ccc(C(F)(F)F)c(F)c2)NC(=O)CN(C)C(=O)[C@H](CC2CCCCC2)N(C)C(=O)CN(C)C(=O)CN(C)C1=O [Compound 1965] ([NMeL]I[Sar][Sar][NMeCha][Sar][hPhe(3-F,4-CF3)]P[Ac5c][NMeChg][NMeD]-Morpholide; lactam N-11) | 50 to 100 nM | 0.55 nM |
| CC[C@H](C)[C@@H]1NC(=O)[C@H](CC(C)C)N(C)C(=O)C[C@@H](C(=O)N2CCCC2)N(C)C(=O)[C@H](C2CCCCC2)N(C)C(=O)C2(CCCC2)NC(=O)[C@@H]2CCCN2C(=O)[C@H](CCc2ccc(Cl)cc2)NC(=O)CN(C)C(=O)[C@H](CC2CCCCC2)N(C)C(=O)CN(C)C(=O)CN(C)C1=O [Compound 1968] ([NMeL]I[Sar][Sar][NMeCha][Sar][hPhe(4-Cl)]P[Ac5c][NMeChg][NMeD]-Pyrrolidide; lactam N-11) | 50 to 100 nM | 1.2 nM |
| CC[C@H](C)[C@@H]1NC(=O)[C@H](CC(C)C)N(C)C(=O)C[C@@H](C(=O)N2CCCC2)N(C)C(=O)[C@H](C2CCCCC2)N(C)C(=O)C2(CCCC2)NC(=O)[C@@H]2CCCN2C(=O)[C@H](CCc2ccc(C(F)(F)F)c(Cl)c2)NC(=O)CN(C)C(=O)[C@H](CC2CCCC2)N(C)C(=O)CN(C)C(=O)CN(C)C1=O [Compound 1969] ([NMeL]I[Sar][Sar][NMeAla(cPent)][Sar][hPhe(3-Cl-4-CF3)]P[Ac5c][NMeChg][NMeD]-Pyrrolidide; lactam N-11) | 50 to 100 nM | 0.61 nM |
| CCCOC[C@H]1C(=O)N(C)CC(=O)N[C@@H](CCc2ccc(C(F)(F)F)c(Cl)c2)C(=O)N2CCC[C@H]2C(=O)NC2(CCCC2)C(=O)N(C)[C@@H](C2CCCCC2)C(=O)N(C)[C@H](C(=O)N2C3CCC2COC3)CC(=O)N(C)[C@@H](CCC)C(=O)N[C@@H]([C@@H](C)CC)C(=O)N(C)CC(=O)N(C)CC(=O)N1C [Compound 1971] ([NMeNva]I[Sar][Sar][NMeS](Propyl)[Sar][hPhe(3-Cl-4-CF3)]P[Ac5c][NMeChg][NMeD]-{3Oxa8azabicyclo(3.2.1)octane}; lactam N-11) | 100 to 500 nM | 1.1 nM |
| CCC[C@H]1C(=O)N[C@@H]([C@@H](C)CC)C(=O)N(C)CC(=O)N(C)CC(=O)N(C)[C@@H](Cc2ccc(C(F)(F)F)cc2)C(=O)N(C)CC(=O)N[C@@H](CCc2ccc(C(F)(F)F)c(Cl)c2)C(=O)N2CCC[C@H]2C(=O)NC2(CCCC2)C(=O)N(C)[C@@H](C2CCCCC2)C(=O)N(C)[C@H](C(=O)N2CCOCC2)CC(=O)N1C [Compound 1972] ([NMeNva]I[Sar][Sar][NMePhe(4-CF3)][Sar][hPhe(3-Cl-4-CF3)]P[Ac5c][NMeChg][NMeD]-Morpholide; lactam N-11) | 20 to 50 nM | 0.37 nM |
| CCC[C@H]1C(=O)N[C@@H]([C@@H](C)CC)C(=O)N(C)CC(=O)N(C)CC(=O)N(C)[C@@H](CC2CCCC2)C(=O)N(C)CC(=O)N[C@@H](CCc2ccc(C(F)(F)F)c(Cl)c2)C(=O)N2CCC[C@H]2C(=O)NC2(CCCC2)C(=O)N(C)[C@@H](C2CCCCC2)C(=O)N(C)[C@H](C(=O)N2CCCC2)CC(=O)N1C [Compound 1975] ([NMeNva]I[Sar][Sar][NMeAla(cPent)][Sar][hPhe(3-Cl-4-CF3)]P[Ac5c][NMeChg][NMeD]-Pyrrolidide; lactam N-11) | 50 to 100 nM | 0.51 nM |
| CC[C@H](C)[C@@H]1NC(=O)[C@H](CC(C)C)N(C)C(=O)C[C@@H](C(=O)N2C3CCC2COC3)N(C)C(=O)[C@H](C2CCCCC2)N(C)C(=O)C2(CCCC2)NC(=O)[C@@H]2CCCN2C(=O)[C@H](CCc2ccc(C(F)(F)F)c(Cl)c2)NC(=O)CN(C)C(=O)[C@H](CC2CCCC2)N(C)C(=O)CN(C)C(=O)CN(C)C1=O [Compound 1976] ([NMeL]I[Sar][Sar][NMeAla(cPent)][Sar][hPhe(3-Cl-4-CF3)]P[Ac5c][NMeChg][NMeD]-{3Oxa8azabicyclo(3.2.1)octane}; lactam N-11) | 100 to 500 nM | 1.5 nM |
| CC[C@H](C)[C@@H]1NC(=O)[C@H](CC(C)C)N(C)C(=O)C[C@@H](C(=O)N2CCCC2)N(C)C(=O)[C@H](C2CCCCC2)N(C)C(=O)C2(CCCC2)NC(=O)[C@@H]2CCCN2C(=O)[C@H](CCc2ccc(C(F)(F)F)c(Cl)c2)NC(=O)CN(C)C(=O)[C@H](Cc2ccc(C(F)(F)F)cc2)N(C)C(=O)CN(C)C(=O)CN(C)C1=O [Compound 1978] ([NMeL]I[Sar][Sar][NMePhe(4-CF3)][Sar][hPhe(3-Cl-4-CF3)]P[Ac5c][NMeChg][NMeD]-Pyrrolidide; lactam N-11) | 20 to 50 nM | 0.51 nM |
